According to article PMC7556730 (Chemico-biological interactions, 2020):
“And” between values parts separate entries of the source, which are not always exact repeats. Identical values can stand only once. Marks after values point to notes of the source that are not given here.

What was measured:
[1] = cited from earlier work
[2] = system: microsomal carboxylesterases (CESs) in rat liver microsomes; assay: Incubations of active microsomes without NADPH; format: in vitro ADME, Sprague Dawley rats
[3] = system: microsomal carboxylesterases (CESs); assay: Incubations of active microsomes without NADPH; format: in vitro ADME, Sprague Dawley rats; conditions: male, Sprague-Dawley, rat, liver microsomes
[4] = system: cytochrome P450 enzymes (CYPs); assay: Microsomal incubations with benoxacor in the presence of NADPH; format: in vitro ADME, Sprague Dawley rats; conditions: Sprague-Dawley, rat, liver microsomes
[5] = system: hepatic cytochrome P450 enzymes (CYPs) in rat liver microsomes; assay: as above; format: in vitro ADME, Sprague Dawley rats; conditions: for percentage of benoxacor remaining: 0.1 mg/mL protein, 0.5 mM NADPH, 5 μM benoxacor
[6] = system: glutathione S-transferases (GSTs); assay: Cytosolic incubations with benoxacor in the presence of GSH; format: in vitro ADME, Sprague Dawley rats; conditions: Sprague-Dawley, rat, liver cytosol
[7] = system: glutathione S-transferases (GSTs) in rat liver cytosol; assay: as above; format: in vitro ADME, Sprague Dawley rats; conditions: for percentage of benoxacor remaining: 1 mg/mL protein, 5 mM GSH, 5 μM benoxacor
[8] = system: cytosolic GSTs; assay: Cytosolic inhibition study with the GST inhibitor ethacrynic acid; format: in vitro ADME, Sprague Dawley rats; conditions: for benoxacor depletion in control incubations: ethacrynic acid controls; for percent of benoxacor remaining: 5 minutes
[9] = system: microsomal CESs; assay: Microsomal inhibition study with the CES inhibitor benzil; format: in vitro ADME, Sprague Dawley rats

SMILES: CC1COc2ccccc2N1C(=O)C(Cl)Cl (stereo not shown) [benoxacor, Benoxacor]
- experimental solubility [1]: 22 ± 1.7 µg/mL
- enantiomeric fraction (EF) ([2]; active female rat microsomes without NADPH, 30 minutes): 0.47
- enantiomeric fraction (EF) ([2]; active female rat microsomes without NADPH, initial value): 0.48
- enantiomeric fraction (EF) ([2]; active male rat microsomes without NADPH, initial value): 0.48
- CES Scaled CLint ([2]; male rat): 6.74 mL/min/g liver
- microsomal CLint [3]: 150 µL/min/mg
- microsomal CLint ([4]; female): 1280 µL/min/mg
- microsomal CLint ([4]; male): 1110 µL/min/mg
- CYP Scaled CLint ([5]; female rat): 57.80 mL/min/g liver
- enantiomeric fraction (EF = A1/(A1+A2)) ([5]; female rat liver microsomes with NADPH, 30 minutes): 0.67±0.01 and 0.67
- enantiomeric fraction (EF = A1/(A1+A2)) ([5]; female rat liver microsomes with NADPH, start of 30-minute time-course): 0.48
- percentage of benoxacor remaining ([5]; female rat liver microsomes, 30 minutes): 48±1%
- CYP Scaled CLint ([5]; male rat): 50.13 mL/min/g liver
- enantiomeric fraction (EF = A1/(A1+A2)) ([5]; male rat liver microsomes with NADPH, 30 minutes): 0.60±0.01 and 0.60
- enantiomeric fraction (EF = A1/(A1+A2)) ([5]; male rat liver microsomes with NADPH, start of 30-minute time-course): 0.48
- percentage of benoxacor remaining ([5]; male rat liver microsomes, 30 minutes): 45±1%
- microsomal CLint ([6]; female): 280 µL/min/mg
- microsomal CLint ([6]; male): 440 µL/min/mg
- enantiomeric fraction (EF) ([7]; female rat liver cytosol with GSH, 30 minutes): 0.54±0.01
- enantiomeric fraction (EF) ([7]; female rat liver cytosol with GSH, start of 30-minute time-course): 0.48
- percentage of benoxacor remaining ([7]; female rat liver cytosol, 30 minutes): 18±2%
- GST Scaled CLint ([7]; female rat, significantly different from male (p = 0.0038)): 25.87^a mL/min/g liver
- GST Scaled CLint ([7]; male rat): 40.18 mL/min/g liver
- enantiomeric fraction (EF) ([7]; male rat liver cytosol with GSH, 30 minutes): 0.43±0.01 and 0.43
- enantiomeric fraction (EF) ([7]; male rat liver cytosol with GSH, start of 30-minute time-course): 0.47
- percentage of benoxacor remaining ([7]; male rat liver cytosol, 30 minutes): 9±2%
- benoxacor depletion in control incubations ([8]; 10 μM): 100±1%
- benoxacor depletion in control incubations ([8]; 100 μM): 102±1%
- benoxacor depletion in control incubations ([8]; 1000 μM): 100±1%
- percent of benoxacor remaining ([8]; female rat cytosol with GSH, 1000 μM ethacrynic acid): 98±2%
- percent of benoxacor remaining ([8]; female rat cytosol with GSH, without inhibitor): 71±3%
- percent of benoxacor remaining ([8]; male rat preparations with GSH, with ethacrynic acid): 96±2%
- percent of benoxacor remaining ([8]; male rat preparations with GSH, without inhibitor): 64±1%
- benoxacor depletion in control incubations ([9]; benzil controls, 5, 50 and 500 nM): 100±1%
- depletion of benoxacor in the presence of benzil ([9]; male rat liver microsomes without NADPH, 30 minutes, benzil 5 to 500 nM): not depleted
- percent of benoxacor remaining ([9]; male rat liver microsomes without NADPH, 30 minutes, without benzil): 92±2%

SMILES: O=C(C(=O)c1ccccc1)c1ccccc1 [benzil, Benzil, reference compound]
- inhibition of the loss of benoxacor by the CES inhibitor ([9]; male rat liver microsomes without NADPH, 30 minutes, 5, 50, 500 nM): significantly inhibited
